Measurements reported in US10952432B2, “Cannabidiol compositions and uses thereof” (PHARMOTECH SA, priority 2016, dated 2021).

How the values were obtained:
[1] = test system: Pseudomonas aeruginosa ATCC 27853; experiment: Biofilm formation, crystal violet staining; type: cell-based
Method: Overnight pre-cultures of Pseudomonas aeruginosa ATCC 27853 strain were diluted to an OD600 (optical density measured at a wavelength of 600 nm) of 0.1 in 2 ml of LB (lysogeny broth) medium into polypropylene tubes. […] Planktonic cells were removed by washing once with distilled water and biofilms were stained with crystal violet (CV, 1% in water) for 30 minutes. CV was discarded and tubes were rinsed twice with water to remove excess of dye. The stained biofilms were re-suspended in 33% acetic acid and their density was evaluated by measuring the OD600 of the suspensions normalized for bacterial density.

[2] = test system: elastase produced by P. aeruginosa PAOW1(PT5); experiment: Elastase production measured by Elastin Congo Red enzymatic activity; type: cell-based, Pseudomonas aeruginosa; settings: CBD 500 μg/ml, overnight culture of wt strain, absorption at 495 nm normalized to cell density
Method: Elastase production was measured in two bacterial strains: Pseudomonas aeruginosa PAOW1(PT5) that is a wild type (wt) and Pseudomonas aeruginosa ΔlasIΔrhlI that is a mutant for quorum sensing signaling that has reduced production/expression of elastase due to the inhibition of the quorum sensing system. […] Insoluble ECR was removed by centrifugation and the absorption of the supernatant was measured at 495 nm and normalized according to cell density.

CB2 receptors = CB2 receptors (Homo sapiens, UniProt P34972); settings: compared with THC; cited from earlier work
[3] = test system: methicillin-resistant Staphylococcus aureus (MRSA) strains; settings: Appendino et al., 2008; cited from earlier work

CB2 receptors, sequence (P34972 whole entry): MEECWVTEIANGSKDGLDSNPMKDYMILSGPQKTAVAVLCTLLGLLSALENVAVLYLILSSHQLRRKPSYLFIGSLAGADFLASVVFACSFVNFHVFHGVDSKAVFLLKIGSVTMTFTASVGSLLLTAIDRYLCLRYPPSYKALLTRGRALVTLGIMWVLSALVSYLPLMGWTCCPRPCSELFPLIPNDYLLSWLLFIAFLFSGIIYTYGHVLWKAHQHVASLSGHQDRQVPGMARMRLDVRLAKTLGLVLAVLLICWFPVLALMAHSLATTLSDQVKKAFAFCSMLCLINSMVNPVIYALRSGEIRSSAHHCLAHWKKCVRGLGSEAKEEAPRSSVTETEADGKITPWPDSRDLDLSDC

Structure (SMILES)	reduction of biofilm formation by a factor, as compared to control without CBD ([1]; CBD 1.9 μg/ml to 31.25 μg/ml, 12 h at 37° C., LB medium, OD600 normalized for bacterial density)	inhibitory effect on biofilm formation at higher concentration ([1]; higher concentration of CBD (62.5 and 125 μg/ml tested), probably due to reduced solubility in culture medium)	reduction of the production of elastase as compared to control [2]	affinity for CB2 receptors (CB2 receptors)	activity against a variety of MRSA strains [3]
C=C(C)[C@@H]1CCC(C)=C[C@H]1c1c(O)cc(CCCCC)cc1O [CBD, 2-[(1R,6R)-6-isopropenyl-3-methylcyclohex-2-en-1-yl]-5-pentylbenzene-1,3-diol]	about 2	inhibitory effect on biofilm formation is reduced	about 30%	very low affinity	having activity
C=C(C)[C@@H]1CCC(C)=C[C@H]1c1c(O)cc(O)cc1CCCCC [abn-CBD, reference compound]	–	–	–	–	having activity
